In general, IC50 refers to the concentration needed to halve the response being measured.

Among the data in patent US11479551B2, “MTA-cooperative PRMT5 inhibitors” (Mirati Therapeutics, Inc., priority 2019, dated 2022) are IC50 values, retold here.

A value given as a limit tells only on which side of the number the result lay.

In assay [1] the target is T1, PRMT5/MEP50 complex (Homo sapiens (Human), UniProt O14744). Description: PRMT5:MEP50 HotSpot Assay (full-length histone H2A substrate, plus and minus MTA). The class given is biochemical. The following applies: IC50 + 2 μM MTA, in the presence of 2 μM MTA. The protocol: (§1) The PRMT5 inhibitory activity of compounds of the present invention was determined using either a PRMT5:MEP50 FlashPlate Assay (Reaction Biology Corporation) or a PRMT5:MEP50 HotSpot Assay (Reaction Biology Corporation).
The assay uses recombinant full-length histone H2A as the PRMT5 substrate. […] The reaction was stopped and transferred to filter paper for detection. The amount of tritiated H2A in each sample was determined using a scintillation counter.

Assay [2] concerns the target T1, PRMT5/MEP50 complex. The assay is described as follows: PRMT5:MEP50 FlashPlate Assay (histone H4 peptide substrate, plus and minus MTA). The class given is biochemical. The protocol:
as §1
1. PRMT5:MEP50 FlashPlate Assay

Where [3] appears, read: IC50 + 2 μM MTA (nM), in the presence of 2 μM MTA.
Where [4] appears, read: in the absence of MTA, read-out: IC50.

T1 sequence (O14744 2-637): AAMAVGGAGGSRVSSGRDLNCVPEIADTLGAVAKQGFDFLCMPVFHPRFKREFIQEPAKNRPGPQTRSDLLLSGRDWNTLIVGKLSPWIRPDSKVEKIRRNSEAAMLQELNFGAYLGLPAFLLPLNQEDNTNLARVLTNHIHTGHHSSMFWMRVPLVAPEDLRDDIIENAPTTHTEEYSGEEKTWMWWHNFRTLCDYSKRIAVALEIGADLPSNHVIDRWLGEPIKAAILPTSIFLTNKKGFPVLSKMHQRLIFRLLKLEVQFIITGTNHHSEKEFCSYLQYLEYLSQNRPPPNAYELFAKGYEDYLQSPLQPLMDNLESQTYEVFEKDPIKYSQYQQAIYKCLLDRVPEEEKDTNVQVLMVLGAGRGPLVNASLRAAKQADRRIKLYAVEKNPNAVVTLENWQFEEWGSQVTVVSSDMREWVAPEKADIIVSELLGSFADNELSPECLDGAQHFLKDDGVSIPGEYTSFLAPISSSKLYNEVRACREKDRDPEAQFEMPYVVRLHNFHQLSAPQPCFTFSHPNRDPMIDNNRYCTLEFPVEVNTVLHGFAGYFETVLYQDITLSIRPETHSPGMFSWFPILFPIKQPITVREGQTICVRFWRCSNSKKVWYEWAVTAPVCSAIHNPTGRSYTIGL
T1 sequence (Q9BQA1 2-342 partner): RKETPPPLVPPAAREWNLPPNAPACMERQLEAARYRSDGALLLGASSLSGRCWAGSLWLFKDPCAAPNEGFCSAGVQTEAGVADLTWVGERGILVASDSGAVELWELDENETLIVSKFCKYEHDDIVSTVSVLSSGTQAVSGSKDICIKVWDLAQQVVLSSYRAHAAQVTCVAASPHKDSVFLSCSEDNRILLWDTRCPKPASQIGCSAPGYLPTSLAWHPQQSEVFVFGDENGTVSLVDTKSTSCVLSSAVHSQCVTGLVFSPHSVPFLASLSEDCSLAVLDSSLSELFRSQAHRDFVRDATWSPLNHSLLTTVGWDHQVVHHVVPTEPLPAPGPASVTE

With `Cn1ncc(-c2ccc3c(=O)[nH]nc(CN)c3c2)c1-c1cccc(OC2CC2)c1C#N` [Example 4-175, 2-(4-(4-(aminomethyl)-1-oxo-1,2-dihydrophthalazin-6-yl)-1-methyl-1H-pyrazol-5-yl)-6-cyclopropoxybenzonitrile], the half-inhibitory concentration (IC50) at PRMT5/MEP50 complex [1] amounted to 1120 nM.

Regarding `CC(C)Oc1ccn2ncc(-c3ccc4c(=O)[nH]nc(CN)c4c3)c2c1` [Example 4-113, 4-(aminomethyl)-6-(5-isopropoxypyrazolo[1,5-a]pyridin-3-yl)phthalazin-1(2H)-one], the IC50 on PRMT5/MEP50 complex [1] amounted to 561 nM.

As to `Cc1ccn2c(-c3ccc4c(=O)[nH]nc(CN)c4c3)cnc2c1` [Example 4-30, 4-(aminomethyl)-6-(7-methylimidazo[1,2-a]pyridin-3-yl)phthalazin-1(2H)-one], the IC50 on PRMT5/MEP50 complex [2] (setting [3]) is 400 nM; on PRMT5/MEP50 complex [2] (setting [4]) it was 4750 nM.

`NCc1n[nH]c(=O)c2ccc(-c3cnc4ccccn34)cc12` [Example 4-3, 4-(aminomethyl)-6-(imidazo[1,2-a]pyridin-3-yl)phthalazin-1(2H)-one]: the half-inhibitory concentration (IC50) turned out to be 37 nM at PRMT5/MEP50 complex [2] (setting [3]) and 926 nM on PRMT5/MEP50 complex [2] (setting [4]).

Consider `NCc1n[nH]c(=O)c2ccc(-c3cncc(S(=O)(=O)c4ccccc4)c3)cc12` [Example 4-52, 4-(aminomethyl)-6-(5-(phenylsulfonyl)pyridin-3-yl)phthalazin-1(2H)-one], for which the IC50 on PRMT5/MEP50 complex [2] (setting [3]) was determined as 18 nM; at PRMT5/MEP50 complex [2] (setting [4]), 669 nM.

With `Cn1ncc(-c2ccc3c(=O)[nH]nc(CN)c3c2)c1Cl` [Example 4-49, 4-(aminomethyl)-6-(5-chloro-1-methyl-pyrazol-4-yl)-2H-phthalazin-1-one], the IC50 stood at 300 nM on PRMT5/MEP50 complex [2] (setting [3]) and 5930 nM at PRMT5/MEP50 complex [2] (setting [4]).

On to `Cc1cn2c(-c3ccc4c(=O)[nH]nc(CN)c4c3)cnc2cn1` [Example 4-24, 4-(aminomethyl)-6-(6-methylimidazo[1,2-a]pyrazin-3-yl)phthalazin-1(2H)-one], for which the IC50 at PRMT5/MEP50 complex [2] (setting [3]) was 840 nM; on PRMT5/MEP50 complex [2] (setting [4]) it was 13400 nM.

Consider `NCc1n[nH]c(=O)c2ccc(N3CCOCC3)cc12` [Example 6-5, 4-(aminomethyl)-6-morpholino-2H-phthalazin-1-one], for which the IC50 on PRMT5/MEP50 complex [2] (setting [3]) and at PRMT5/MEP50 complex [2] (setting [4]) was greater than 100000 nM throughout.

For the compound `NCc1n[nH]c(=O)c2ccc(C3CCCC3)cc12` [Example 5-1, 4-(aminomethyl)-6-cyclopentylphthalazin-1(2H)-one], the IC50 is 72000 nM on PRMT5/MEP50 complex [2] (setting [3]) and greater than 100000 nM on PRMT5/MEP50 complex [2] (setting [4]).

As for `NCc1n[nH]c(=O)c2ccc(-c3cncc(CO)c3)cc12` [Example 3-47, 4-(aminomethyl)-6-(5-(hydroxymethyl)pyridin-3-yl)phthalazin-1(2H)-one], the results for the IC50 on PRMT5/MEP50 complex [2] (setting [3]) and at PRMT5/MEP50 complex [2] (setting [4]) were 56 nM and 2950 nM, respectively.

With `COc1cncc(-c2ccc3c(=O)[nH]nc(CN)c3c2)c1` [Example 3-45, 4-(aminomethyl)-6-(5-methoxypyridin-3-yl)phthalazin-1(2H)-one], the results for the IC50 on PRMT5/MEP50 complex [2] (setting [3]) and on PRMT5/MEP50 complex [2] (setting [4]) were 370 nM and 6810 nM, respectively.

In the case of `NCc1n[nH]c(=O)c2ccc(-c3cncc(OC(F)(F)F)c3)cc12` [Example 4-9, 4-(aminomethyl)-6-(5-(trifluoromethoxy)pyridin-3-yl)phthalazin-1(2H)-one], the results for the IC50 at PRMT5/MEP50 complex [2] (setting [3]) and on PRMT5/MEP50 complex [2] (setting [4]) were 590 nM and 16000 nM, respectively.

For the compound `Cc1ccc(Oc2cncc(-c3ccc4c(=O)[nH]nc(CN)c4c3)c2)cc1` [Example 7-5, 4-(aminomethyl)-6-(5-(p-tolyloxy)pyridin-3-yl)phthalazin-1(2H)-one], the values for the IC50 on PRMT5/MEP50 complex [2] (setting [3]) and on PRMT5/MEP50 complex [2] (setting [4]) were 2 nM and 64 nM, respectively.

As for `CS(=O)(=O)c1cncc(-c2ccc3c(=O)[nH]nc(CN)c3c2)c1` [Example 3-48, 4-(aminomethyl)-6-(5-(methylsulfonyl)pyridin-3-yl)phthalazin-1(2H)-one], the IC50 at PRMT5/MEP50 complex [2] (setting [3]) came out at 280 nM; at PRMT5/MEP50 complex [2] (setting [4]), 7980 nM.

On to `N#Cc1cccc(Oc2cncc(-c3ccc4c(=O)[nH]nc(CN)c4c3)c2)c1` [Example 4-69, 3-((5-(4-(aminomethyl)-1-oxo-1,2-dihydrophthalazin-6-yl)pyridin-3-yl)oxy)benzonitrile], for which the IC50 on PRMT5/MEP50 complex [2] (setting [3]) was 10 nM; at PRMT5/MEP50 complex [2] (setting [4]) it was 624 nM.

For `NCc1n[nH]c(=O)c2ccc(-c3cnc4cnccn34)cc12` [Example 4-25, 4-(aminomethyl)-6-(imidazo[1,2-a]pyrazin-3-yl)phthalazin-1(2H)-one], the IC50 on PRMT5/MEP50 complex [2] (setting [3]) is 1700 nM; on PRMT5/MEP50 complex [2] (setting [4]), greater than 100000 nM.

As for `Cc1nn(C)c(C)c1-c1ccc2c(=O)[nH]nc(CN)c2c1` [Example 3-24, 4-(aminomethyl)-6-(1,3,5-trimethyl-1H-pyrazol-4-yl)phthalazin-1(2H)-one], the IC50 on PRMT5/MEP50 complex [2] (setting [3]) is 20000 nM; at PRMT5/MEP50 complex [2] (setting [4]) it was greater than 100000 nM.

For `Cc1c(Cl)cccc1Oc1cncc(-c2ccc3c(=O)[nH]nc(CN)c3c2)c1` [Example 4-75, 4-(aminomethyl)-6-(5-(3-chloro-2-methylphenoxy)pyridin-3-yl)phthalazin-1(2H)-one], the values for the IC50 at PRMT5/MEP50 complex [2] (setting [3]) and on PRMT5/MEP50 complex [2] (setting [4]) were 0.7 nM and 33 nM, respectively.

On to `N#CCc1ccc2c(CN)n[nH]c(=O)c2c1` [Example 13-1, 2-[1-(aminomethyl)-4-oxo-3H-phthalazin-6-yl]acetonitrile], for which the IC50 on PRMT5/MEP50 complex [2] (setting [3]) turned out to be 25000 nM; on PRMT5/MEP50 complex [2] (setting [4]), 89600 nM.

For the compound `N#Cc1ncccc1-c1ccc2c(=O)[nH]nc(CN)c2c1` [Example 4-7, 3-(4-(aminomethyl)-1-oxo-1,2-dihydrophthalazin-6-yl)picolinonitrile], the IC50 is 8400 nM on PRMT5/MEP50 complex [2] (setting [3]) and greater than 100000 nM on PRMT5/MEP50 complex [2] (setting [4]).

`NCc1n[nH]c(=O)c2ccc(-c3cnc4ccc(Cl)cn34)cc12` [Example 4-34, 4-(aminomethyl)-6-(6-chloroimidazo[1,2-a]pyridin-3-yl)phthalazin-1(2H)-one]: the values for the IC50 on PRMT5/MEP50 complex [2] (setting [3]) and at PRMT5/MEP50 complex [2] (setting [4]) were 110 nM and 2800 nM, respectively.

Regarding `Cc1ccc(Oc2cncc(-c3ccc4c(=O)[nH]nc(CN)c4c3)c2)cc1Cl` [Example 4-74, 4-(aminomethyl)-6-(5-(3-chloro-4-methylphenoxy)pyridin-3-yl)phthalazin-1(2H)-one], the IC50 came to 1.1 nM on PRMT5/MEP50 complex [2] (setting [3]) and 76 nM on PRMT5/MEP50 complex [2] (setting [4]).

As for `NCc1n[nH]c(=O)c2ccc(-c3cnc4ccc(Cl)nn34)cc12` [Example 4-18, 4-(aminomethyl)-6-(6-chloroimidazo[1,2-b]pyridazin-3-yl)phthalazin-1(2H)-one], the IC50 on PRMT5/MEP50 complex [2] (setting [3]) amounted to 280 nM; at PRMT5/MEP50 complex [2] (setting [4]), 4420 nM.

In the case of `Cc1cncc(-c2ccc3c(=O)[nH]nc(CN)c3c2)c1` [Example 3-10, 4-(aminomethyl)-6-(5-methylpyridin-3-yl)phthalazin-1(2H)-one], the IC50 at PRMT5/MEP50 complex [2] (setting [3]) was determined as 100 nM; at PRMT5/MEP50 complex [2] (setting [4]), 3910 nM.

`CCc1ccc(-c2ccc3c(=O)[nH]nc(CN)c3c2)cn1` [Example 3-3, 4-(aminomethyl)-6-(6-ethylpyridin-3-yl)phthalazin-1(2H)-one]: the IC50 on PRMT5/MEP50 complex [2] (setting [3]) amounted to 25000 nM; on PRMT5/MEP50 complex [2] (setting [4]) it was 10000 nM.

With `NCc1n[nH]c(=O)c2ccc(-c3cnn4c3CN(C(=O)C3CCC3)CC4)cc12` [Example 4-86, 4-(aminomethyl)-6-(5-(cyclobutanecarbonyl)-4,5,6,7-tetrahydropyrazolo[1,5-a]pyrazin-3-yl)phthalazin-1(2H)-one], the half-maximal inhibitory concentration (IC50) at PRMT5/MEP50 complex [2] (setting [3]) is 11 nM; at PRMT5/MEP50 complex [2] (setting [4]), 731 nM.

Take `CC(C)CCn1cc(-c2ccc3c(=O)[nH]nc(CN)c3c2)cn1` [Example 3-26, 4-(aminomethyl)-6-(1-isopentyl-1H-pyrazol-4-yl)phthalazin-1(2H)-one]: the IC50 on PRMT5/MEP50 complex [2] (setting [3]) was 1600 nM; at PRMT5/MEP50 complex [2] (setting [4]), 20600 nM.

`CC#Cc1cncc(-c2ccc3c(=O)[nH]nc(CN)c3c2)c1` [Example 3-39, 4-(aminomethyl)-6-(5-(prop-1-yn-1-yl)pyridin-3-yl)phthalazin-1(2H)-one]: the results for the IC50 at PRMT5/MEP50 complex [2] (setting [3]) and on PRMT5/MEP50 complex [2] (setting [4]) were 920 nM and 24300 nM, respectively.

Turning to `Cc1ccc(Sc2cncc(-c3ccc4c(=O)[nH]nc(CN)c4c3)c2)cc1` [Example 4-60, 4-(aminomethyl)-6-(5-(p-tolylthio)pyridin-3-yl)phthalazin-1(2H)-one], the IC50 on PRMT5/MEP50 complex [2] (setting [3]) is 2.3 nM; at PRMT5/MEP50 complex [2] (setting [4]), 117 nM.

In the case of `Cc1ncc(-c2ccc3c(=O)[nH]nc(CN)c3c2)cn1` [Example 3-11, 4-(aminomethyl)-6-(2-methylpyrimidin-5-yl)phthalazin-1(2H)-one], the IC50 on PRMT5/MEP50 complex [2] (setting [3]) stood at 5000 nM; on PRMT5/MEP50 complex [2] (setting [4]), 131000 nM.

Take `N#Cc1ccn(-c2cncc(-c3ccc4c(=O)[nH]nc(CN)c4c3)c2)n1` [Example 4-10, 1-(5-(4-(aminomethyl)-1-oxo-1,2-dihydrophthalazin-6-yl)pyridin-3-yl)-1H-pyrazole-3-carbonitrile]: the figures for the IC50 at PRMT5/MEP50 complex [2] (setting [3]) and at PRMT5/MEP50 complex [2] (setting [4]) were 1000 nM and greater than 100000 nM, respectively.

As for `CCc1cncc(-c2ccc3c(=O)[nH]nc(CN)c3c2)c1` [Example 3-13, 4-(aminomethyl)-6-(5-ethylpyridin-3-yl)phthalazin-1(2H)-one], the IC50 was found to be 110 nM on PRMT5/MEP50 complex [2] (setting [3]) and 1420 nM at PRMT5/MEP50 complex [2] (setting [4]).

In the case of `NCc1n[nH]c(=O)c2ccc(-c3cnn4c3CN(C(=O)C35CC(C3)C5)CC4)cc12` [Example 4-89, 4-(aminomethyl)-6-(5-(bicyclo[1.1.1]pentane-1-carbonyl)-4,5,6,7-tetrahydropyrazolo[1,5-a]pyrazin-3-yl)phthalazin-1(2H)-one], the figures for the IC50 at PRMT5/MEP50 complex [2] (setting [3]) and on PRMT5/MEP50 complex [2] (setting [4]) were 64 nM and 1220 nM, respectively.

In the case of `Cn1ncc(-c2ccc3c(=O)[nH]nc(CN)c3c2)c1C#N` [Example 4-31, 4-(4-(aminomethyl)-1-oxo-1,2-dihydrophthalazin-6-yl)-1-methyl-1H-pyrazole-5-carbonitrile], the IC50 on PRMT5/MEP50 complex [2] (setting [3]) stood at 410 nM; at PRMT5/MEP50 complex [2] (setting [4]), 7630 nM.

Regarding `CCN1CCn2ncc(-c3ccc4c(=O)[nH]nc(CN)c4c3)c2C1` [Example 4-80, 4-(aminomethyl)-6-(5-ethyl-4,5,6,7-tetrahydropyrazolo[1,5-a]pyrazin-3-yl)phthalazin-1(2H)-one], the IC50 at PRMT5/MEP50 complex [2] (setting [3]) amounted to 58 nM; at PRMT5/MEP50 complex [2] (setting [4]), 1570 nM.
